Data on four molecules can be found in patent US7326733B2, “Methods for increasing bone density” (The Forsyth Institute, priority 2003, dated 2008).

Series [1] deals with Swiss Webster mice. In words: Systemic fluoxetine, trabecular parameters in mice (Example 2). It is filed as in vivo. The settings on record: fluoxetine 10 mg/kg i.p. once a day for 6 weeks, vs non-treated mice. From the text:
After 6 weeks the animals were sacrificed and trabecular bones were examined.
The increased number, increased connectivity, and decreased space between the transversal structures (i.e. trabeculae) of “spongelike bone” is indicative of increased density and strength of trabecular bone.

Series [2] deals with Swiss Webster mice. In words: Femur bone mass by microcomputer tomography after fluoxetine (Example 6). It is filed as in vivo. Also on record: Trabecular thickness: unit not given here. The settings on record: for Trabecular number / Trabecular spacing / Trabecular thickness / connectedness of trabeculae: hydrochloride.
A further series has as its system mice. In words: New bone formation in calvarium after LPS or PTH plus fluoxetine, Van Giesson stain (Example 3). In kind it is in vivo. As to the method: LPS (50 μl at 5 μg/μl) or PTH was injected subcutaneously above the calvarial bone once on day one to stimulate the osteoclasts.
After five days, the mice were sacrificed. The calvarium was fixed, decalcified, and analyzed histologically for new bone formation. Van Giesson stain was used to distinguish old bone from new bone (new bone stains blue). […] The x-axis represents arbitrary units of new bone formation, where 0 represents no new bone and 3 represents high amount of new bone.

A further series has as its system RAW 264.7 cells. In words: RANKL-induced osteoclast formation by RAW 264.7 cells, TRAP staining. The settings on record: for osteoclast differentiation (TRAP+ multinucleated osteoclasts): exposure 4 days. In kind it is cell-based, mouse. How it is done: RAW 264.7 mouse macrophage/monocytes (TIB-71) were purchased from ATCC (Manassas, Va.). Cells were cultured in DMEM/1.5 g/l sodium bicarbonate (JRH Biosciences, Lenexa, Kans.) plus 10% non-heat-inactivated FBS (Invitrogen Corporation Carlsbad, Calif.). When needed, 5-HT was stripped from the FBS by incubating it twice in 0.25% Dextran-coated charcoal (Sigma-Aldrich, St. Louis, Mo.) for 30 minutes at 45° C. Recombinant mouse soluble RANKL (Immunex Corp., Seattle, Wash.) was added at a concentration of 10 ng/ml. Recombinant murine RANKL is an NH2-terminal fusion of a leucine zipper trimerization domain (Fanslow et al., 1994, Semin. Immunol. 6(5):267-278) with residues 134-316 of murine RANKL. […] Cultures were also exposed to the VMAT inhibitor reserpine and the MAO-B inhibitor pargylline (Sigma-Aldrich, St. Louis, Mo.), at the indicated concentrations for 4 days. Mouse bone marrow cells were obtained from long bones of 2-week old C57B1 mice and cultured for 7 days in αMEM/FBS supplemented with 50 ng/ml RANKL and 50 ng/ml human M-CSF (PeproTech Inc., Rocky Hill, N.J.).
(§1) Cells were stained for tartrate-resistant acid phosphatase (TRAP) using a commercially available kit (#387-A, Sigma-Aldrich, St. Louis, Mo.), according to the manufacturer's directions.

For series [3] the following is noted: cited from earlier work.
Series [4] relates to cathepsin K, MMP-9, TRAP expression. In words: Northern blot analysis of osteoclast markers in RANKL-stimulated RAW 264.7 cells. It is filed as cell-based, mouse. On the set-up: reduction in the expression of cathepsin K / reduction in the expression of MMP-9 / reduction in the expression of TRAP: dose or concentration left out as unconfirmed. How it is done: Total RNA was extracted from cells using the TRIAZOL reagent (Invitrogen Corporation, Carlsbad, Calif.), according to the manufacturer's instructions. For RT-PCR, […] of RNA were reversed-transcribed to cDNA using SuperScript II (Invitrogen Corporation, Carlsbad, Calif.) following the manufacturer's instructions. One-tenth of the cDNA was used as a template for the polymerase chain reaction (PCR) […] (35 cycles at 94° C. for 1 minute, 58° C. for 1 minute and 72° C. for 1 minute). For Northern blot analysis, […] of RNA were size fractionated on a 1.2% agarose denaturing gel and transferred onto nylon membranes. The membranes were hybridized to ^32P radiolabeled probes overnight at 42° C. in hybridization solution (50% formamide, 5× SSC, 5× Denhardt's solution, 0.5% SDS and […] salmon sperm DNA), washed twice to remove unbound probe in 1× SSC, 0.2% SDS at 50° C. for 20 minutes, and exposed to X-ray film. The DNA probes were generated by reverse transcriptase polymerase chain reaction (RT-PCR) from OCL RNA, using the following primer-pairs: […]

The subject of series [5] is Primary osteoblasts obtained from mouse calvaria. In words: Bone nodule formation in vitro, Von Kossa stain (Example 5). In kind it is cell-based. The conditions noted are these: two weeks in presence of Vitamin D, presence vs absence of fluoxetine. As to the method:
Primary osteoblasts obtained from mouse calvaria were cultured in vitro for two weeks. […] The cells were then fixed and stained with Von Kossa stain, which stains for calcium phosphate present in bone nodules. Bone nodules formed by osteoblasts in vitro have the same cellular and biochemical composition found in bone. The number of bone nodules were counted.

Series [6] deals with normal mouse bone marrow cells (BMC). In words: Osteoclast formation from normal mouse bone marrow cells with M-CSF and RANKL. In kind it is cell-based. The settings on record: TRAP staining. How it is done: Mouse bone marrow cells were obtained from long bones of 2-week old C57B1 mice and cultured for 7 days in αMEM/FBS supplemented with 50 ng/ml RANKL and 50 ng/ml human M-CSF (PeproTech Inc., Rocky Hill, N.J.).
as §1

Where [7] appears, read: femur, fluoxetine 10 mg/kg i.p. daily for six weeks, n = 6.
Setting [8] is: femur, fluoxetine 10 mg/kg i.p. daily for six weeks, n = 6, listed as Fluoxetine.
The mark [9] stands for this setting: fluoxetine-treated vs untreated mice.
Where [10] appears, read: RANKL-stimulated RAW 264.7 cells.
Setting [11] is: added serotonin in 5-HT-depleted FBS, Days 3 and 4 after RANKL induction.

“Also recorded” adds a separate entry of the source.

Regarding `CNCCC(Oc1ccc(C(F)(F)F)cc1)c1ccccc1.Cl` (racemic) [fluoxetine, (+/−)—N-methyl-3-phenyl-3-[(α,α,α-trifluoro-p-tolyl)oxy]propylamine hydrochloride], in the series with Swiss Webster mice [1], the Trabecular spacing entry is recorded as “decreased”, the “number of trabeculae per unit length of bone” value is “increased” and the thickness of trabeculae entry is recorded as “no significant difference”. Besides, in the series with Swiss Webster mice [1] (hydrochloride), the “bone mineral content (BMC)” value is on record as “increase” and the connectedness of trabeculae result is on record as “more connected; also recorded: increase”. Besides, in the series with Swiss Webster mice [2] (setting [7]), the Bone surface is reported as 16.9 ± 7.3 mm^2, the Trabecular number entry is given as “significant increases”, the Trabecular spacing entry is recorded as “reduction” and the Trabecular thickness entry is “stable”. The connectedness of trabeculae entry in the series with Swiss Webster mice [2] (setting [7]) was “better connected”. This molecule also had a Bone volume/total volume with Swiss Webster mice [2] (femur, fluoxetine 10 mg/kg i.p. daily for six weeks, n = 6, in % (unit assumed)) of 16.7 ± 7.3. In the series on Swiss Webster mice [2] (setting [8]), this molecule had a Trabecular number of 3.26 ± 0.53, a Trabecular spacing of 0.32 ± 0.05, a Trabecular thickness of 0.09 ± 0.01 and a connectedness of trabeculae of 114.2 ± 53.0. For the same molecule, in the series on Swiss Webster mice [2] (setting [9]), the “increase in bone mineral content” value is on record as 50%, the “increase in bone surface” value came to 50% and the “increase in bone volume/total volume” value is on record as 50%. Besides, the new bone formation result in the series with mice (LPS injected above calvarial bone on day one, fluoxetine 10 mg/kg i.p. once a day for five days, vs LPS alone, hydrochloride) is listed as “increased new bone formation; also recorded: greater increase in new bone”. In the series with mice (co-administration of fluoxetine and PTH, vs PTH alone), the new bone formation entry is recorded as “greater increase in new bone”. For the same molecule, the “formation of TRAP positive cells” value in the series on RAW 264.7 cells (RANKL-induced RAW 264.7 cells, fluoxetine concentration series) is reported as “inhibited the formation of TRAP positive cells in a dose-dependent manner”. In addition, in the series with RAW 264.7 cells (RANKL-induced, 5-HT replete (FBS) and depleted (FBS−) serum), the “osteoclast differentiation (TRAP positive multinucleated cells)” value is listed as “suppressed osteoclast differentiation”. The half-life in series [3] (stated with the dosage range for treating depression) was 170 to 220 h. Besides, in series [3] (stated with the mouse i.p. regimen of Example 2), the ½ life was 1 to 2 days. Further, in series [4] (setting [10]), the “reduction in the expression of MMP-9” value is listed as 80%, the “reduction in the expression of TRAP” value is recorded as around 20% and the “reduction in the expression of cathepsin K” value is listed as around 70%. Further, the “number of bone nodules” value in series [5] is on record as “increased”. For the same molecule, the BMC-derived osteoclast formation result in series [6] is recorded as “significantly inhibited”.

Regarding `C#CCN(C)Cc1ccccc1` [pargylline], the “osteoclast differentiation (TRAP+ multinucleated osteoclasts)” value in the series with RAW 264.7 cells (presence of RANKL) is reported as “had no effect”.

Consider `COC(=O)[C@H]1[C@H]2C[C@@H]3c4[nH]c5cc(OC)ccc5c4CCN3C[C@H]2C[C@@H](OC(=O)c2cc(OC)c(OC)c(OC)c2)[C@@H]1OC` [reserpine], for which, in the series with RAW 264.7 cells (absence of RANKL), the “TRAP expression by mono- and bi-nucleated cells” value is recorded as “induced TRAP expression”; the “formation of large multinucleated osteoclasts” value is given as “not formed”. Also, the “osteoclast differentiation (TRAP+ multinucleated osteoclasts)” value with RAW 264.7 cells (presence of RANKL) was “promoted osteoclast differentiation”. Moreover, the “cell size and multinucleation” value in the series on RAW 264.7 cells (presence of RANKL, reserpine treatment) is recorded as “stimulated the formation of much larger cells with greater multinucleation”.

With `NCCc1c[nH]c2ccc(O)cc12` [serotonin, 5-hydroxytryptamine], the number of osteoclasts result with RAW 264.7 cells (added serotonin at 30 or 300 ng/ml, 5-HT depleted FBS, RANKL-stimulated) was “significantly increased”. Besides, the osteoclast formation result in the series with RAW 264.7 cells (addition of serotonin 3-300 ng/ml, cultures containing FBS (5-HT replete)) is given as “had no effect”. In addition, in series [4] (setting [11]), the MMP-9 expression entry is recorded as “up-regulated” and the “cathepsin K expression” value is “up-regulated”.
